Experimental findings from patent publication US7939639B2, “Functional role of adrenomedullin (AM) and the gene related product (PAMP) in human pathology and physiology” (The United States of America as represented by the …, priority 1995, dated 2011) are described below.

“Also recorded” adds a separate entry of the source.

One test concerns AM receptor. As to the kind of experiment: cAMP assay (RIA), MCF-7. The test is classed as cell-based, human. How it is done:
k. cAMP Assays: Cyclic AMP was assayed by RIA using a kit obtained from New England Nuclear (Boston, Mass.). […] The supernatants were tested for cAMP using the RIA kit following the manufacturer's instructions.
In general terms: cAMP levels reflect the balance of adenylyl cyclase and phosphodiesterase activity.

In another test the test system is MCF-7. As to the kind of experiment: Soft agar clonal growth assay, MCF-7. The test is classed as cell-based, human. The settings on record: exogenous AM.
A further test relates to E. coli. Briefly: Microdilutional timed kill assay, E. coli. The test is classed as cell-based, Escherichia coli. On the procedure: (§1) Inhibition of growth of E. coli was assessed in a microdilutional timed kill assay. (See FIG. 22) Bacteria and Candida albicans were grown overnight on trypticase soy agar (TSA) and Sobouraud dextrose agar (SDA) plates, respectively, were suspended into RPMI-1640 medium (Bio-Whittaker) and adjusted to a final concentration of 8×10^3 cfu/ml in […] in plastic microdilution trays. AM-related peptides, magainins, and albumin were added in equimolar concentrations ranging from 8 μM to 300 μM. Plates were incubated at 37° C. with gentle agitation over 24 hours. At 6 hr and 24 hr time points, 10 to […] aliquots from each well were quantitatively cultured by serial 100-fold dilutions onto TSA and SDA plates.
On the technique in general: In broth dilution the organism is exposed to a series of concentrations in liquid medium.

For the next test, the system named is C. albicans. Briefly: Micro-/macrodilutional assay, C. albicans. The class given is cell-based, Candida albicans. On the procedure:
as §1, with “AM-related peptides, magainins, and albumin were added in equimolar concentrations ranging from 8 μM to 300 μM.” left out
Data were compiled from six experiments. Macrodilution assays were performed in 12×75 mm borosilicate glass tubes. Organisms were grown and harvested, as described in Roilides, E., et al., J Infect Dis. 163:579 (1991), and adjusted to a final inoculum concentration of 8×10^3 cfu/ml in 400 μl. […] Tubes were incubated at 37° C. with gentle agitation over 24 hours. At 6 and 24 hour time points, 100 μl aliquots from each tube were quantitatively cultured by serial 100-fold dilutions onto TSA and SDA plates.

Test [1] deals with rat isolated islets. As to the kind of experiment: Insulin release from rat isolated islets (RIA). The class given is cell-based. How it is done: (§2) Dose-dependent increase of intracellular cAMP in the islets following addition of AM. Islets from six rats were isolated following well-established protocols (Gray, et al., Diabetes 33, 1055 (1984)). Assays were performed in 24-well plates (90 islets per well). After a 45 min incubation in […] medium containing 5.6 mM glucose, a second incubation in RPMI containing 20.6 mM glucose and the proper concentration of AM and/or the antibody was performed. Supernatants from both incubations were tested by radioimmunoassay (RIA) for insulin (Amersham, Arlington Heights, Ill.). The ratio between the insulin concentration found in the high glucose supernatant and the insulin measured in the low glucose solution is represented in ordinates. After collecting the medium, the islets from the same experiments were saved for analysis of cAMP contents (Korman, et al., Cancer Res. 46, 1214 (1986)). Islets were extracted in 50% ethanol and centrifuged, and the supernatants were tested for cAMP using a RIA kit (New England Nuclear, Boston, Mass.) following manufacturer's instructions. The experiments were repeated three times and a representative example shown. Data are means±standard deviations of two wells.

Test [2] relates to rat isolated islets. Briefly: cAMP content of rat isolated islets (RIA). The settings on record: after addition of AM. The test is classed as cell-based. How it is done: as §2

In the case of `CC[C@H](C)[C@H](NC(=O)[C@H](CCC(N)=O)NC(=O)[C@H](Cc1c[nH]cn1)NC(=O)[C@H](C)NC(=O)[C@H](CC(C)C)NC(=O)[C@H](CCCCN)NC(=O)[C@H](CCC(N)=O)NC(=O)[C@@H](NC(=O)[C@@H](NC(=O)[C@@H]1CSSC[C@H](NC(=O)CNC(=O)[C@H](Cc2ccccc2)NC(=O)[C@H](CO)NC(=O)[C@H](CCCNC(=N)N)NC(=O)[C@H](CC(C)C)NC(=O)CNC(=O)[C@H](CCC(N)=O)NC(=O)[C@H](Cc2ccccc2)NC(=O)[C@H](CC(N)=O)NC(=O)[C@H](CC(N)=O)NC(=O)[C@H](CCSC)NC(=O)[C@H](CO)NC(=O)[C@H](CCC(N)=O)NC(=O)[C@H](CCCNC(=N)N)NC(=O)[C@@H](N)Cc2ccc(O)cc2)C(=O)N[C@@H](CCCNC(=N)N)C(=O)N[C@@H](Cc2ccccc2)C(=O)NCC(=O)N[C@@H]([C@@H](C)O)C(=O)N1)[C@@H](C)O)C(C)C)C(=O)N[C@@H](Cc1ccc(O)cc1)C(=O)N[C@@H](CCC(N)=O)C(=O)N[C@@H](Cc1ccccc1)C(=O)N[C@H](C(=O)N[C@@H](CC(=O)O)C(=O)N[C@@H](CCCCN)C(=O)N[C@@H](CC(=O)O)C(=O)N[C@@H](CCCCN)C(=O)N[C@@H](CC(=O)O)C(=O)N[C@@H](CC(N)=O)C(=O)N[C@H](C(=O)N[C@@H](C)C(=O)N1CCC[C@H]1C(=O)N[C@@H](CCCNC(=N)N)C(=O)N[C@@H](CO)C(=O)N[C@@H](CCCCN)C(=O)N[C@H](C(=O)N[C@@H](CO)C(=O)N1CCC[C@H]1C(=O)N[C@@H](CCC(N)=O)C(=O)NCC(=O)N[C@@H](Cc1ccc(O)cc1)C(N)=O)[C@@H](C)CC)C(C)C)[C@@H](C)O` [AM], the “effect on cAMP” value in the test with AM receptor (MCF-7) is given as “activated; also recorded: rapid increase in cellular cAMP”. Besides, the “maximum elevation of cellular cAMP” value with AM receptor (relative to normal control) was “three times that of the normal control”. In addition, in the test on MCF-7, the “clonal growth in soft agar” value was “elevated clonal growth”. Also, the “activity against E. coli” value in the test on E. coli (after 6 hours of incubation) is reported as “activity”. In the test with E. coli (microdilution, 6 hours, FIG. 22), the “growth inhibitory activity against E. coli, comparative” value is given as “higher growth inhibitory activity than albumin”. The “antimicrobial effect against C. albicans” value with C. albicans is 73%±8.1. In the test with C. albicans (after 6 hours of incubation), the “activity against C. albicans” value is recorded as “activity”. In addition, the “inhibition of insulin secretion” value with rat isolated islets [1] (AM concentration of 1 μM, freshly isolated islets) is 78%. For the same compound, the “effect of AM on insulin secretion” value in the test with rat isolated islets [1] (isolated islets) was “inhibits insulin secretion in a dose-dependent manner; also recorded: dose-dependent reduction of insulin secretion; also recorded: reduces insulin secretion”. Besides, in the test with rat isolated islets [2], the “cAMP levels in the islets” value is “Elevating levels of cAMP; also recorded: cAMP levels increased”.
